Test results: PubChem BioAssay (NCI)
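Tested at 5 concentrations; 48 h exposure; 96-well plates; endpoints linearly interpolated, else capped at highest concentration. Definition used: TGI = concentration required for complete inhibition of growth.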

Experiments:
Experiment in all cases: NCI tumour cell line growth inhibition, 48 h
TK-10 renal = tested on: TK-10 renal
T-47D breast = tested on: T-47D breast
NCI-H522 lung = tested on: NCI-H522 lung
SK-MEL-2 melanoma = tested on: SK-MEL-2 melanoma
PC-3 prostate = tested on: PC-3 prostate
HOP-62 NSCLC = tested on: HOP-62 NSCLC
HOP-92 NSCLC = tested on: HOP-92 NSCLC
786-0 renal = tested on: 786-0 renal
UACC-62 melanoma = tested on: UACC-62 melanoma
NCI-H460 lung = tested on: NCI-H460 lung
SK-MEL-28 melanoma = tested on: SK-MEL-28 melanoma
SK-MEL-5 melanoma = tested on: SK-MEL-5 melanoma
OVCAR-3 ovarian = tested on: OVCAR-3 ovarian
M14 melanoma = tested on: M14 melanoma
EKVX NSCLC = tested on: EKVX NSCLC
RPMI-8226 leukemia = tested on: RPMI-8226 leukemia
HCC-2998 colon = tested on: HCC-2998 colon
K-562 leukemia = tested on: K-562 leukemia
MALME-3M melanoma = tested on: MALME-3M melanoma
SNB-19 CNS = tested on: SNB-19 CNS
UACC-257 melanoma = tested on: UACC-257 melanoma
COLO 205 colon = tested on: COLO 205 colon
U251 CNS = tested on: U251 CNS
A549 NSCLC = tested on: A549 NSCLC
NCI-H226 lung = tested on: NCI-H226 lung
SF-539 CNS = tested on: SF-539 CNS
SF-295 CNS = tested on: SF-295 CNS
SNB-75 CNS = tested on: SNB-75 CNS
SR leukemia = tested on: SR leukemia
MDA-MB-231 breast = tested on: MDA-MB-231 breast
HCT-116 colon = tested on: HCT-116 colon
NCI-H23 lung = tested on: NCI-H23 lung
KM12 colon = tested on: KM12 colon
CCRF-CEM leukemia = tested on: CCRF-CEM leukemia
OVCAR-4 ovarian = tested on: OVCAR-4 ovarian
SW-620 colon = tested on: SW-620 colon
BT-549 breast = tested on: BT-549 breast
HCT-15 colon = tested on: HCT-15 colon
UO-31 renal = tested on: UO-31 renal
SN12C renal = tested on: SN12C renal
OVCAR-8 ovarian = tested on: OVCAR-8 ovarian
NCI/ADR-RES ovarian = tested on: NCI/ADR-RES ovarian
ACHN renal = tested on: ACHN renal
A498 renal = tested on: A498 renal
MDA-MB-435 = tested on: MDA-MB-435
HT29 colon = tested on: HT29 colon
MDA-N = tested on: MDA-N
CAKI-1 renal = tested on: CAKI-1 renal
MOLT-4 leukemia = tested on: MOLT-4 leukemia
RXF 393 renal = tested on: RXF 393 renal
HS 578T breast = tested on: HS 578T breast
DU-145 prostate = tested on: DU-145 prostate
IGROV1 ovarian = tested on: IGROV1 ovarian
LOX IMVI melanoma = tested on: LOX IMVI melanoma
HL-60(TB) leukemia = tested on: HL-60(TB) leukemia
OVCAR-5 ovarian = tested on: OVCAR-5 ovarian
SK-OV-3 ovarian = tested on: SK-OV-3 ovarian
SF-268 CNS = tested on: SF-268 CNS

Measured: TGI

Cn1nc(-c2ccccc2)nc1[N+](=O)[O-]
> 10 µM: all assays above
